Results as given in ChEMBL document CHEMBL1806380, “Rigidized 1-aryl sulfonyl tryptamines: synthesis and pharmacological evaluation as 5-HT6 receptor ligands” (Bioorg Med Chem Lett, 2011).
Each block holds one compound with its values, some of them ahead of it.

Tests used:
[1] = target: 5-hydroxytryptamine receptor 6 (Homo sapiens) (UniProt P50406); assay: Binding affinity to human recombinant 5HT6 receptor expressed in CHO cells co-expressing pCRE-Luc gene assessed as modulation of serotonin-induced intracellular cAMP level after 4 hrs by luciferase based luminescence assay; type: cell-based
5-hydroxytryptamine receptor 6 (Homo sapiens), sequence (P50406 whole entry): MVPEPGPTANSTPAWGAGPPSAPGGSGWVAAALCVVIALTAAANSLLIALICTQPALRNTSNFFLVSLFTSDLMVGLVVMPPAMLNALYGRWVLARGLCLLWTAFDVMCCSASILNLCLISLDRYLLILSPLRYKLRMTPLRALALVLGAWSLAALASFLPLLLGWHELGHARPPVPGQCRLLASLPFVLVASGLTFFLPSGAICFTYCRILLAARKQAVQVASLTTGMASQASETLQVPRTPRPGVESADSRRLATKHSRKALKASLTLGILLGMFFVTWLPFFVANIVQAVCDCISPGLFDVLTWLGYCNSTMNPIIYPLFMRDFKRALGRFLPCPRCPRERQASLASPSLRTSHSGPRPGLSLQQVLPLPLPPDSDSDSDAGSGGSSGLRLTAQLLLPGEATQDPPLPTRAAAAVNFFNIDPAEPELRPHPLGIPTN

[2] = target: Sodium-dependent dopamine transporter (Homo sapiens) (UniProt Q01959); assay: Inhibition of DAT at 0.5 uM
Sodium-dependent dopamine transporter (Homo sapiens), sequence (Q01959 whole entry): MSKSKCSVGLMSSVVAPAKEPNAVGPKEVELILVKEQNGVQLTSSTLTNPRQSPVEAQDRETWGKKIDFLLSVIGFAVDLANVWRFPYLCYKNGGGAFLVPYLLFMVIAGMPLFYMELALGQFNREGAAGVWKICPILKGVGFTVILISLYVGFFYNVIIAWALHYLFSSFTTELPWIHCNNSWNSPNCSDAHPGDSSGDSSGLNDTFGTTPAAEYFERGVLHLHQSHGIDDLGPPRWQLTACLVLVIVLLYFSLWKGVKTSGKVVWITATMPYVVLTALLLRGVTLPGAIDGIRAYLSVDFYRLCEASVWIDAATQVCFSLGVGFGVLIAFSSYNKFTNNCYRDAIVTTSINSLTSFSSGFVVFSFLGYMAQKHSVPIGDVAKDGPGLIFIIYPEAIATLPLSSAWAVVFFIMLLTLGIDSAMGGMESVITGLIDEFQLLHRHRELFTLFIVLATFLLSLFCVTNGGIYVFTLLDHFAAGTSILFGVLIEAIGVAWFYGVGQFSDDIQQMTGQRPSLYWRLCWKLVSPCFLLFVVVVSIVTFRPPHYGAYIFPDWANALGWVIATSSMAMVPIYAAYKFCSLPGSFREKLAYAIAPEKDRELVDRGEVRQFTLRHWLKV

[3] = target: 5-hydroxytryptamine receptor 2A (Homo sapiens) (UniProt P28223); assay: Inhibition of 5HT2A receptor at 0.5 uM
5-hydroxytryptamine receptor 2A (Homo sapiens), sequence (P28223 whole entry): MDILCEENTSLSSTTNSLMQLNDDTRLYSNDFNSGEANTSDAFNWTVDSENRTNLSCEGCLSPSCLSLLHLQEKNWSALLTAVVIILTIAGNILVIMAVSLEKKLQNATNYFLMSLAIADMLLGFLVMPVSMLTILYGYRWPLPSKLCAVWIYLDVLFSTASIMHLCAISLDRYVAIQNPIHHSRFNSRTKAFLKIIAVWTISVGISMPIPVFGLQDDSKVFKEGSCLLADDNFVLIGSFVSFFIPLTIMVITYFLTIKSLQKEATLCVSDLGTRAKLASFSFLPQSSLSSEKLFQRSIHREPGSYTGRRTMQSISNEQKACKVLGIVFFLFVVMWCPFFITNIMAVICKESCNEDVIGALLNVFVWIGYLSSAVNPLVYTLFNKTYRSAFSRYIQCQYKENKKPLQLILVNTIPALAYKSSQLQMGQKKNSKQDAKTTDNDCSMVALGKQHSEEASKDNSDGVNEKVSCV

[4] = target: Histamine H1 receptor (Homo sapiens) (UniProt P35367); assay: Inhibition of histamine H1 receptor at 0.5 uM
Histamine H1 receptor (Homo sapiens), sequence (P35367 whole entry): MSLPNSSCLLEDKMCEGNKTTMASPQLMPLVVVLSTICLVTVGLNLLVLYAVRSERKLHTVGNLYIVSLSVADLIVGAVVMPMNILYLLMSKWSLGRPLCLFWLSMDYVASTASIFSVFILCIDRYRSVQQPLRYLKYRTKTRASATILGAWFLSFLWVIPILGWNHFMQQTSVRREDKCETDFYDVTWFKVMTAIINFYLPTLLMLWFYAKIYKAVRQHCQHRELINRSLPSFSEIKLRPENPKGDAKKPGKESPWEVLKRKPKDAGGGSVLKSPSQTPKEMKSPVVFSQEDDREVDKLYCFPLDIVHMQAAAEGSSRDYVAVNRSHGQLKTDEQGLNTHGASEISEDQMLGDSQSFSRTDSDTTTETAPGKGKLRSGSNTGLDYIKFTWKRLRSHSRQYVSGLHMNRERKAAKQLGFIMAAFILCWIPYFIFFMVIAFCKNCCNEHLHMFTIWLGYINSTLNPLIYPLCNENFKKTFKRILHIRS

[5] = target: D(2) dopamine receptor (Homo sapiens) (UniProt P14416); assay: Inhibition of dopamine D2 receptor at 0.5 uM
D(2) dopamine receptor (Homo sapiens), sequence (P14416 whole entry): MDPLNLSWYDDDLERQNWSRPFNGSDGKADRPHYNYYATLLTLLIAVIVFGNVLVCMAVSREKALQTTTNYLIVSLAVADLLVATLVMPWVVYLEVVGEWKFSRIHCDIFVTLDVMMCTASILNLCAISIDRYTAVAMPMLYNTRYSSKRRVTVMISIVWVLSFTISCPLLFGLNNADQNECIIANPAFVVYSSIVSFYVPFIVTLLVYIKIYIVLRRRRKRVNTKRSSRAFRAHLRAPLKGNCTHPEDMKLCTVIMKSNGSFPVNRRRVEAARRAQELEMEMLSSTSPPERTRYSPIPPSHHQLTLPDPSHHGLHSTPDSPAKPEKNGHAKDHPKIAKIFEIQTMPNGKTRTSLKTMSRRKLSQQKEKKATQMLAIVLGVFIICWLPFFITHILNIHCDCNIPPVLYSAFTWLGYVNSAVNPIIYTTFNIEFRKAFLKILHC

[6] = target: 5-hydroxytryptamine receptor 4 (Homo sapiens) (UniProt Q13639); assay: Binding affinity to human recombinant 5HT4 receptor expressed in CHO cells co-expressing pCRE-Luc gene assessed as modulation of serotonin-induced intracellular cAMP level at 0.5 uM after 5 hrs by luciferase based luminescence assay; type: cell-based
5-hydroxytryptamine receptor 4 (Homo sapiens), sequence (Q13639 whole entry): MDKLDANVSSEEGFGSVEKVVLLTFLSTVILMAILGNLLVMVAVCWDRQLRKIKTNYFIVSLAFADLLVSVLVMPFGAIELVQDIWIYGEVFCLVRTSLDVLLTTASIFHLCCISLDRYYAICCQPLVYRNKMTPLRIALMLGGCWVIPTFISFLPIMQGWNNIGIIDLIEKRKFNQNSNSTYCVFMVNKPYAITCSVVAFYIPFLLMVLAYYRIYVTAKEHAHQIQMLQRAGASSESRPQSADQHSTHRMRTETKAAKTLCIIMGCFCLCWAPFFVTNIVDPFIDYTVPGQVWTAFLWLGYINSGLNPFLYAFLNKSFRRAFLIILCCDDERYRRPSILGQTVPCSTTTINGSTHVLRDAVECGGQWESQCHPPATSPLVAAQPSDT

[7] = target: T1, 5-hydroxytryptamine receptor 2C (Homo sapiens) (UniProt P28335); assay: Inhibition of 5HT2C receptor at 0.5 uM
T1 sequence (whole entry): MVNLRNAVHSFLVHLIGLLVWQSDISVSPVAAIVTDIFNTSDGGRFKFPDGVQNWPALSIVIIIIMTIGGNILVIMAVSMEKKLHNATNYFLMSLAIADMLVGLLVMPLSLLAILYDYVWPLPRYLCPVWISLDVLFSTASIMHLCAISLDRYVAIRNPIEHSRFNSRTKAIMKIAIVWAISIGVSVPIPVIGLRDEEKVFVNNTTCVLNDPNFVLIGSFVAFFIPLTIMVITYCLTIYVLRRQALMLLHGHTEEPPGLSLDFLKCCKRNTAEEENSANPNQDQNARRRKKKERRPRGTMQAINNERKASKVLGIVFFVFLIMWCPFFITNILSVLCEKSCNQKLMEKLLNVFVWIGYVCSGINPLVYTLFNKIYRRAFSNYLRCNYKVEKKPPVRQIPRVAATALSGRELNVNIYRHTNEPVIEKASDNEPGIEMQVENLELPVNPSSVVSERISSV

[8] = target: T2, Alpha-1B adrenergic receptor (Homo sapiens) (UniProt P35368); assay: Inhibition of adrenergic alpha1b receptor at 0.5 uM
T2 sequence (whole entry): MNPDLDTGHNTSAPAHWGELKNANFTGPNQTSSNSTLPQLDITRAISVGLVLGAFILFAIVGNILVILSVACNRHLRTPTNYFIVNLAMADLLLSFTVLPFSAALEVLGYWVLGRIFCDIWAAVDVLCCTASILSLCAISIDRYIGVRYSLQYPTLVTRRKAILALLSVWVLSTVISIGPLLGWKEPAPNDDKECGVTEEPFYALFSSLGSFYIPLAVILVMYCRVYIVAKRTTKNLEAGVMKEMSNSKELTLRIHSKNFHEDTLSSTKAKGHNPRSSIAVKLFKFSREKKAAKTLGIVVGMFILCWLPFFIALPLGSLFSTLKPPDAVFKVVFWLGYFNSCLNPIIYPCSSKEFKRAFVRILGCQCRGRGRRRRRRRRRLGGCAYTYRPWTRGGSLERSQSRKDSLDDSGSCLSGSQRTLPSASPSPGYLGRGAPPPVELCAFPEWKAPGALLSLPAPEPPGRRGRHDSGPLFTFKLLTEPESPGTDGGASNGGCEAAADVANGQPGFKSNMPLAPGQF

[9] = target: Sodium-dependent noradrenaline transporter (Homo sapiens) (UniProt P23975); assay: Inhibition of NET at 0.5 uM
Sodium-dependent noradrenaline transporter (Homo sapiens), sequence (P23975 whole entry): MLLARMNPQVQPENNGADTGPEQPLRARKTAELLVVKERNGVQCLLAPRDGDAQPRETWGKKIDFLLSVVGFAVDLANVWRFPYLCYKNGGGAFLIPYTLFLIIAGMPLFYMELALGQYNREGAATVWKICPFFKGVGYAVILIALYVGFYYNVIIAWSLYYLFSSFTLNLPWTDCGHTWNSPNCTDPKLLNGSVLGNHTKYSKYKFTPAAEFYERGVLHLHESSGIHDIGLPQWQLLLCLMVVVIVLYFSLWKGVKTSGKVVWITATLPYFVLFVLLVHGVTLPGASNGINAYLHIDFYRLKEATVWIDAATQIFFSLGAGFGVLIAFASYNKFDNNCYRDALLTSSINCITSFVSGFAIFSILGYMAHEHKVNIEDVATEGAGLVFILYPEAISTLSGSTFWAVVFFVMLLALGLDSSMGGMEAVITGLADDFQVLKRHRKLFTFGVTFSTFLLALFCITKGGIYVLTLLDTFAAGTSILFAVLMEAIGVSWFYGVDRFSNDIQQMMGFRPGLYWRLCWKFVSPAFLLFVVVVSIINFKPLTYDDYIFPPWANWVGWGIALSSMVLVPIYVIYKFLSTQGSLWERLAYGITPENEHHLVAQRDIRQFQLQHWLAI

[10] = target: 5-hydroxytryptamine receptor 7 (Rattus norvegicus) (UniProt P32305); assay: Binding affinity to rat 5HT7 receptor expressed in CHO cells co-expressing pCRE-Luc gene assessed as modulation of serotonin-induced intracellular cAMP level at 0.5 uM after 5 hrs by luciferase based luminescence assay; type: cell-based
5-hydroxytryptamine receptor 7 (Rattus norvegicus), sequence (P32305 whole entry): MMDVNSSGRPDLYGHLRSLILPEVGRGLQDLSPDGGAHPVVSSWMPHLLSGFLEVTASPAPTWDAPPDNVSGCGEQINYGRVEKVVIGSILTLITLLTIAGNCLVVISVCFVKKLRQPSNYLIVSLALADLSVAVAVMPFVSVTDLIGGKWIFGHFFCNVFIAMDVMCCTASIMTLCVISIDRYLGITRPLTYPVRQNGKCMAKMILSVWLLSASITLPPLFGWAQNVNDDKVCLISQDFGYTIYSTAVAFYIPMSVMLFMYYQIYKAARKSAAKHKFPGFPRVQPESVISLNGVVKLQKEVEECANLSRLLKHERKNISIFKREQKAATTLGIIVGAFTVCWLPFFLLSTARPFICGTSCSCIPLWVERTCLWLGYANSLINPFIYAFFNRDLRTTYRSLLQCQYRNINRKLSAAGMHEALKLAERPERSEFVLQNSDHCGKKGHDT

[11] = target: Sodium-dependent serotonin transporter (Homo sapiens) (UniProt P31645); assay: Inhibition of SERT at 0.5 uM
Sodium-dependent serotonin transporter (Homo sapiens), sequence (P31645 whole entry, looked up): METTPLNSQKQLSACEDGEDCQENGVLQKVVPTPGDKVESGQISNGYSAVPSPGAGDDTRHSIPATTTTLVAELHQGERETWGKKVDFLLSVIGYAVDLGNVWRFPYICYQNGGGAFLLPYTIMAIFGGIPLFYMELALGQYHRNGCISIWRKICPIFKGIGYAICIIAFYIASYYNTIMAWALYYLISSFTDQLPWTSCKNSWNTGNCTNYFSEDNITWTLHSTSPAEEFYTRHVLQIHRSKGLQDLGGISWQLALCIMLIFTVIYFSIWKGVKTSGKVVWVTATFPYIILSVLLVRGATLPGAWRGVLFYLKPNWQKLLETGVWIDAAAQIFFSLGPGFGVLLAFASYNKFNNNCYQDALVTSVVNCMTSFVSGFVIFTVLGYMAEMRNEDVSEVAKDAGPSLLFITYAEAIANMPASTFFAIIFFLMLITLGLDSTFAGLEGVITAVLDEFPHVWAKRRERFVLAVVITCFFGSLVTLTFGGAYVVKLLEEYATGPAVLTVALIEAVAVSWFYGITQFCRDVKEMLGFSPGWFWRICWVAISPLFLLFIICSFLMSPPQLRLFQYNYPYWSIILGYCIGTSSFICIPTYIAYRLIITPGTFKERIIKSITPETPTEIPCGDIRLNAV

[12] = target: T3, Muscarinic acetylcholine receptor M1 (Homo sapiens) (UniProt P11229); assay: Binding affinity to human muscarinic M1 receptor expressed in CHO cells co-expressing pCRE-Luc gene assessed as modulation of acetylcholine-induced intracellular cAMP level at 0.5 uM after 5 hrs by luciferase based luminescence assay; type: cell-based
T3 sequence (whole entry): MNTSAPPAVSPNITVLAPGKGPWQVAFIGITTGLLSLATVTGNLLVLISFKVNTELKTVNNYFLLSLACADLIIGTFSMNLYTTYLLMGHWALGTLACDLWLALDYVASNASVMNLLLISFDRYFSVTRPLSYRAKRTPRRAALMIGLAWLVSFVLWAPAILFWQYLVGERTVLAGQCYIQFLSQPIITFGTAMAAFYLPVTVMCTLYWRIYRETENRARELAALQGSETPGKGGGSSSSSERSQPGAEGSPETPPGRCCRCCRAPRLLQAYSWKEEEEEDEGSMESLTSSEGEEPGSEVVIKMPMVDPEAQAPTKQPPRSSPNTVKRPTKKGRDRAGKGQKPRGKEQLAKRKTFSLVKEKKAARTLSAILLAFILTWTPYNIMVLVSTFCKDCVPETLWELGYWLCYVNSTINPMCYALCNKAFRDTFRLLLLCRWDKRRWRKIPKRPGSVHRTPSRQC

[13] = Metabolic stability in human liver microsomes assessed as drug metabolized level after 30 mins; type: ADME, Microsome; conditions: read-out: Activity
[14] = Metabolic stability in rat liver microsomes assessed as drug metabolized level after 30 mins; type: ADME, Microsome; conditions: read-out: Activity

- Kb [1]: 12.5 nM
SMILES: CCN1CC(Cl)=C(c2cn(S(=O)(=O)c3cccc(Cl)c3)c3ccccc23)C1

- Kb [1]: 6.15 nM
SMILES: CCN1CC(Cl)=C(c2cn(S(=O)(=O)c3ccccc3Br)c3ccc(OC)cc23)C1

- Kb [1]: 0.63 nM
SMILES: COc1ccc2c(c1)c(C1=C(Cl)CN(C)C1)cn2S(=O)(=O)c1ccc(F)cc1

- Kb [1]: 1.78 nM
SMILES: COc1ccc2c(c1)c(C1=C(Cl)CN(C)C1)cn2S(=O)(=O)c1ccc(Br)cc1

- Kb [1]: 1 nM
SMILES: CN1CCC(c2cn(S(=O)(=O)c3ccc(F)cc3)c3ccccc23)C1 (racemic)

- Kb [1]: 7.27 nM
SMILES: CC(C)Oc1ccc2c(c1)c(C1=C(Cl)CN(C)C1)cn2S(=O)(=O)c1ccc(F)cc1

- Kb [1]: 0.45 nM
SMILES: CCOc1ccc2c(c1)c(C1=C(Cl)CN(CC)C1)cn2S(=O)(=O)c1ccccc1Br

- Kb [1]: 1 nM
SMILES: CCOc1ccc2c(c1)c(C1=C(Cl)CN(C)C1)cn2S(=O)(=O)c1ccccc1

- inhibition [2]: < 50%
- inhibition [3]: < 50%
- inhibition [4]: < 50%
- inhibition [5]: < 50%
- inhibition [6]: < 50%
- inhibition [7]: < 50%
- inhibition [8]: < 50%
- inhibition [9]: < 50%
- inhibition [10]: < 50%
- inhibition [11]: < 50%
- Kb [1]: 0.3 nM
- inhibition [12]: < 50%
SMILES: COc1ccc2c(c1)c(C1=C(Cl)CN(C)C1)cn2S(=O)(=O)c1ccccc1Br

- inhibition [2]: < 50%
- inhibition [3]: < 50%
- inhibition [4]: < 50%
- inhibition [5]: < 50%
- inhibition [6]: < 50%
- inhibition [7]: < 50%
- inhibition [8]: < 50%
- inhibition [9]: < 50%
- inhibition [10]: < 50%
- inhibition [11]: < 50%
- Kb [1]: 0.6 nM
- inhibition [12]: < 50%
SMILES: CN1CC(Cl)=C(c2cn(S(=O)(=O)c3ccc(F)cc3)c3ccccc23)C1

- Kb [1]: 4.15 nM
SMILES: CC(C)Oc1ccc2c(c1)c(C1CCN(C)C1)cn2S(=O)(=O)c1ccccc1Br (racemic)

- Kb [1]: 6.15 nM
SMILES: CCN1CC(Cl)=C(c2cn(S(=O)(=O)c3cccc(Cl)c3)c3ccc(F)cc23)C1

- Kb [1]: 0.84 nM
SMILES: COc1ccc2c(c1)c(C1=C(Cl)CN(C)C1)cn2S(=O)(=O)c1cccc(Cl)c1

- inhibition [2]: < 50%
- inhibition [3]: < 50%
- inhibition [4]: < 50%
- metabolised at 0.5 h [13]: 97%
- inhibition [5]: < 50%
- inhibition [6]: < 50%
- inhibition [7]: < 50%
- inhibition [8]: < 50%
- inhibition [9]: < 50%
- inhibition [10]: < 50%
- inhibition [11]: < 50%
- Kb [1]: 0.1 nM
- inhibition [12]: < 50%
- metabolised at 0.5 h [14]: 96%
SMILES: COc1ccc2c(c1)c(C1=C(Cl)CN(C)C1)cn2S(=O)(=O)c1ccccc1

- Kb [1]: 0.1 nM
SMILES: CN1CC(Cl)=C(c2cn(S(=O)(=O)c3ccccc3)c3ccc(F)cc23)C1

- Kb [1]: 10 nM
SMILES: COc1ccc(S(=O)(=O)n2cc(C3=C(Cl)CN(C)C3)c3ccccc32)cc1

- Kb [1]: 0.1 nM
SMILES: COc1ccc2c(c1)c(C1CCN(C)C1)cn2S(=O)(=O)c1ccc(C(C)C)cc1 (racemic)

- Kb [1]: 0.25 nM
SMILES: CN1CC(Cl)=C(c2cn(S(=O)(=O)c3ccccc3Br)c3ccc(F)cc23)C1

- Kb [1]: 0.1 nM
SMILES: CCN1CCC(c2cn(S(=O)(=O)c3ccccc3Br)c3ccccc23)C1 (racemic)

- Kb [1]: 0.1 nM
SMILES: CCOc1ccc2c(c1)c(C1CCN(C)C1)cn2S(=O)(=O)c1ccccc1Br (racemic)

More lines, now with the values behind:

SMILES: COc1ccc2c(c1)c(C1=C(Cl)CN(C)C1)cn2S(=O)(=O)c1ccc(C(C)C)cc1
- Kb [1]: 0.25 nM

SMILES: CCOc1ccc2c(c1)c(C1=C(Cl)CN(C)C1)cn2S(=O)(=O)c1ccccc1Br
- Kb [1]: 0.4 nM

SMILES: CCN1CC(Cl)=C(c2cn(S(=O)(=O)c3ccccc3)c3ccc(OC)cc23)C1
- Kb [1]: 0.7 nM

SMILES: CN1CCC(c2cn(S(=O)(=O)c3ccccc3)c3ccccc23)C1 (racemic)
- Kb [1]: 1.52 nM

SMILES: COc1ccc2c(c1)c(CCN(C)C)cn2S(=O)(=O)c1ccccc1
- Kb [1]: 5.8 nM

SMILES: CCN1CC(Cl)=C(c2cn(S(=O)(=O)c3ccc(Br)cc3)c3ccccc23)C1
- Kb [1]: 3.9 nM

SMILES: COc1ccc(S(=O)(=O)n2cc(C3=C(Cl)CN(C)C3)c3cc(OC)ccc32)cc1
- inhibition [2]: < 50%
- inhibition [3]: < 50%
- inhibition [4]: < 50%
- inhibition [5]: < 50%
- inhibition [6]: < 50%
- inhibition [7]: < 50%
- inhibition [8]: < 50%
- inhibition [9]: < 50%
- inhibition [10]: < 50%
- inhibition [11]: < 50%
- Kb [1]: 1.65 nM
- inhibition [12]: < 50%

SMILES: COc1ccc2c(c1)c(C1=C(Cl)CN(C)C1)cn2S(=O)(=O)c1cc(Cl)c(Cl)cc1Cl
- Kb [1]: 18.4 nM

SMILES: CC(C)Oc1ccc2c(c1)c(C1=C(Cl)CN(C)C1)cn2S(=O)(=O)c1ccccc1
- Kb [1]: 0.7 nM

SMILES: CCOc1ccc2c(c1)c(C1=C(Cl)CN(C)C1)cn2S(=O)(=O)c1ccc(Br)cc1
- Kb [1]: 4.45 nM

SMILES: CCN1CC(Cl)=C(c2cn(S(=O)(=O)c3cccc(Cl)c3)c3ccc(OC)cc23)C1
- Kb [1]: 2.4 nM

SMILES: CCN1CC(Cl)=C(c2cn(S(=O)(=O)c3ccccc3Br)c3ccccc23)C1
- Kb [1]: 1.1 nM

SMILES: CCN1CC(Cl)=C(c2cn(S(=O)(=O)c3ccc(F)cc3)c3ccc(OC)cc23)C1
- Kb [1]: 8.7 nM

SMILES: CN1CCC(c2cn(S(=O)(=O)c3ccccc3Br)c3ccccc23)C1 (racemic)
- Kb [1]: 0.13 nM

SMILES: CCN1CCC(c2cn(S(=O)(=O)c3ccccc3Br)c3ccc(OC)cc23)C1 (racemic)
- Kb [1]: 1.3 nM

SMILES: CCN1CC(Cl)=C(c2cn(S(=O)(=O)c3ccc(OC)cc3)c3ccc(OC)cc23)C1
- Kb [1]: 14.5 nM

SMILES: CN1CC(Cl)=C(c2cn(S(=O)(=O)c3ccc(Br)cc3)c3ccccc23)C1
- inhibition [2]: < 50%
- inhibition [3]: < 50%
- inhibition [4]: < 50%
- inhibition [5]: < 50%
- inhibition [6]: < 50%
- inhibition [7]: < 50%
- inhibition [8]: < 50%
- inhibition [9]: < 50%
- inhibition [10]: < 50%
- inhibition [11]: < 50%
- Kb [1]: 0.35 nM
- inhibition [12]: < 50%

SMILES: COc1ccc2c(c1)c(C1CCN(C)C1)cn2S(=O)(=O)c1ccccc1Br (racemic)
- Kb [1]: 0.13 nM

SMILES: CCN1CC(Cl)=C(c2cn(S(=O)(=O)c3ccc(Br)cc3)c3ccc(OC)cc23)C1
- Kb [1]: 4.75 nM

SMILES: COc1ccc2c(c1)c(C1CCN(C)C1)cn2S(=O)(=O)c1ccccc1 (racemic)
- Kb [1]: 0.89 nM

SMILES: CCOc1ccc2c(c1)c(C1=C(Cl)CN(C)C1)cn2S(=O)(=O)c1ccc(F)cc1
- Kb [1]: 6.16 nM

SMILES: CCN1CC(Cl)=C(c2cn(S(=O)(=O)c3ccc(F)cc3)c3ccccc23)C1
- Kb [1]: 5.8 nM
